Key:
Format in all cases: in vivo
[1] = test system: ragweed (common ragweed, Ambrosia elatior); assay: Test A postemergence; settings: postemergence; for Ragweed plant response rating: 125 g ai/ha, visual injury rating on 0 to 100 scale (0 no effect, 100 complete control), approx. 10 d; for Plant response rating, Ragweed: 500 g ai/ha, 0 to 100 scale, 0 no effect, 100 complete control
Outline: (§1)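 Preemergence soil spray on seeded pots or post-emergence spray on 1–2 leaf plants, in loam–sand blend. Greenhouse ~10 d. Visual rating 0–100 against untreated plants.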

[2] = test system: pigweed (Amaranthus retroflexus); assay: Test A postemergence; settings: postemergence; for Pigweed plant response rating: 125 g ai/ha, visual injury rating on 0 to 100 scale (0 no effect, 100 complete control), approx. 10 d; for Plant response rating, Pigweed: 500 g ai/ha, 0 to 100 scale, 0 no effect, 100 complete control
Outline: as §1

[3] = test system: blackgrass (Alopecurus myosuroides); assay: Test A postemergence; settings: postemergence; for Blackgrass plant response rating: 125 g ai/ha, visual injury rating on 0 to 100 scale (0 no effect, 100 complete control), approx. 10 d; for Plant response rating, Blackgrass: 500 g ai/ha, 0 to 100 scale, 0 no effect, 100 complete control
Outline: as §1

[4] = test system: corn (Zea mays); assay: Test A postemergence; settings: postemergence; for Corn plant response rating: 125 g ai/ha, visual injury rating on 0 to 100 scale (0 no effect, 100 complete control), approx. 10 d; for Plant response rating, Corn: 500 g ai/ha, 0 to 100 scale, 0 no effect, 100 complete control
Outline: as §1

[5] = test system: Galium (catchweed bedstraw, Galium aparine); assay: Test A postemergence; settings: postemergence; for Galium plant response rating: 125 g ai/ha, visual injury rating on 0 to 100 scale (0 no effect, 100 complete control), approx. 10 d; for Plant response rating, Galium: 500 g ai/ha, 0 to 100 scale, 0 no effect, 100 complete control
Outline: as §1

[6] = test system: barnyardgrass (Echinochloa crus-galli); assay: Test A postemergence; settings: postemergence; for Barnyardgrass plant response rating: 125 g ai/ha, visual injury rating on 0 to 100 scale (0 no effect, 100 complete control), approx. 10 d; for Plant response rating, Barnyardgrass: 500 g ai/ha, 0 to 100 scale, 0 no effect, 100 complete control
Outline: as §1

[7] = test system: giant foxtail (Setaria faberii); assay: Test A postemergence; settings: postemergence; for Foxtail, Giant plant response rating: 125 g ai/ha, visual injury rating on 0 to 100 scale (0 no effect, 100 complete control), approx. 10 d; for Plant response rating, Foxtail, Giant: 500 g ai/ha, 0 to 100 scale, 0 no effect, 100 complete control
Outline: as §1

[8] = test system: Kochia (Kochia scoparia); assay: Test A postemergence; settings: postemergence; for Kochia plant response rating: 125 g ai/ha, visual injury rating on 0 to 100 scale (0 no effect, 100 complete control), approx. 10 d; for Plant response rating, Kochia: 500 g ai/ha, 0 to 100 scale, 0 no effect, 100 complete control
Outline: as §1

[9] = test system: wheat (Triticum aestivum); assay: Test A postemergence; settings: postemergence; for Wheat plant response rating: 125 g ai/ha, visual injury rating on 0 to 100 scale (0 no effect, 100 complete control), approx. 10 d; for Plant response rating, Wheat: 500 g ai/ha, 0 to 100 scale, 0 no effect, 100 complete control
Outline: as §1

[10] = test system: ryegrass, Italian (Italian ryegrass, Lolium multiflorum); assay: Test A postemergence; settings: postemergence; for Ryegrass, Italian plant response rating: 125 g ai/ha, visual injury rating on 0 to 100 scale (0 no effect, 100 complete control), approx. 10 d; for Plant response rating, Ryegrass, Italian: 500 g ai/ha, 0 to 100 scale, 0 no effect, 100 complete control
Outline: as §1

[11] = test system: ducksalad (Heteranthera limosa); assay: Test B flooded paddy test; settings: Flood, 250 g ai/ha; 0 to 100 scale where 0 is no effect and 100 is complete control; 13 to 15 d
Outline: (§2)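 Response scored visually against untreated controls, 0 = no effect and 100 = complete control, 13–15 d after treatment in the greenhouse. Compounds added to paddy water held 3 cm above soil surface. Treatment given at 2-leaf stage.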

[12] = test system: barnyardgrass (Echinochloa crus-galli); assay: Test B flooded paddy test; settings: Flood, 250 g ai/ha; 0 to 100 scale where 0 is no effect and 100 is complete control; 13 to 15 d
Outline: as §2

[13] = test system: rice (Oryra sativa); assay: Test B flooded paddy test; settings: Flood, 250 g ai/ha; 0 to 100 scale where 0 is no effect and 100 is complete control; 13 to 15 d
Outline: as §2

[14] = test system: sedge, umbrella (small-flower umbrella sedge, Cyperus difformis); assay: Test B flooded paddy test; settings: Flood, 250 g ai/ha; 0 to 100 scale where 0 is no effect and 100 is complete control; 13 to 15 d
Outline: as §2

[15] = test system: rice (Oryza sativa); assay: Test C flooded paddy test; settings: Flood, 0 is no effect, 100 is complete control
Text: (§3) Plant species in the flooded paddy test consisted of rice (Oryza sativa), sedge, umbrella (small-flower umbrella sedge, Cyperus difformis), ducksalad (Heteranthera limosa), and barnyardgrass (Echinochloa crus-galli) grown to the 2-leaf stage for testing. At time of treatment, test pots were flooded to 3 cm above the soil surface, treated by application of test compounds directly to the paddy water, and then maintained at that water depth for the duration of the test. Treated plants and controls were maintained in a greenhouse for 13 to 15 d, after which time all species were compared to controls and visually evaluated. Plant response ratings, summarized in Table C, are based on a scale of 0 to 100 where 0 is no effect and 100 is complete control. A dash (-) response means no test result.

[16] = test system: ducksalad (Heteranthera limosa); assay: Test C flooded paddy test; settings: Flood, 0 is no effect, 100 is complete control
Text: as §3

[17] = test system: barnyardgrass (Echinochloa crus-galli); assay: Test C flooded paddy test; settings: Flood, 0 is no effect, 100 is complete control
Text: as §3

[18] = test system: sedge, umbrella (small-flower umbrella sedge, Cyperus difformis); assay: Test C flooded paddy test; settings: Flood, 0 is no effect, 100 is complete control
Text: as §3

[19] = test system: ragweed (common ragweed, Ambrosia elatior); assay: Test A preemergence; settings: for Plant response rating, Ragweed: 125 g ai/ha, preemergence, 0 to 100 scale (0 no effect, 100 complete control); for Ragweed plant response rating (0 to 100 scale, 0 is no effect, 100 is complete control): Preemergence, 500 g ai/ha, visual injury approx. 10 d
Outline: as §1

[20] = test system: pigweed (Amaranthus retroflexus); assay: Test A preemergence; settings: for Plant response rating, Pigweed: 125 g ai/ha, preemergence, 0 to 100 scale (0 no effect, 100 complete control); for Pigweed plant response rating (0 to 100 scale, 0 is no effect, 100 is complete control): Preemergence, 500 g ai/ha, visual injury approx. 10 d
[21] = test system: barnyardgrass (Echinochloa crus-galli); assay: Test A preemergence; settings: for Plant response rating, Barnyardgrass: 125 g ai/ha, preemergence, 0 to 100 scale (0 no effect, 100 complete control); for Barnyardgrass plant response rating (0 to 100 scale, 0 is no effect, 100 is complete control): Preemergence, 500 g ai/ha, visual injury approx. 10 d
Outline: as §1

[22] = test system: giant foxtail (Setaria faberii); assay: Test A preemergence; settings: for Plant response rating, Foxtail, Giant: 125 g ai/ha, preemergence, 0 to 100 scale (0 no effect, 100 complete control); for Foxtail, Giant plant response rating (0 to 100 scale, 0 is no effect, 100 is complete control): Preemergence, 500 g ai/ha, visual injury approx. 10 d
Outline: as §1

[23] = test system: Kochia (Kochia scoparia); assay: Test A preemergence; settings: for Plant response rating, Kochia: 125 g ai/ha, preemergence, 0 to 100 scale (0 no effect, 100 complete control); for Kochia plant response rating (0 to 100 scale, 0 is no effect, 100 is complete control): Preemergence, 500 g ai/ha, visual injury approx. 10 d
Outline: as §1

[24] = test system: ryegrass, Italian (Italian ryegrass, Lolium multiflorum); assay: Test A preemergence; settings: for Plant response rating, Ryegrass, Italian: 125 g ai/ha, preemergence, 0 to 100 scale (0 no effect, 100 complete control); for Ryegrass, Italian plant response rating (0 to 100 scale, 0 is no effect, 100 is complete control): Preemergence, 500 g ai/ha, visual injury approx. 10 d
Outline: as §1

O=C1NCC(c2ccc(F)cc2F)C1C(=O)Nc1cccc(F)c1F (stereo not shown) [Compound 455]
20: Plant response rating, Kochia [23]
100: Plant response rating, Ducksalad [11] | Plant response rating (scale of 0 to 100), Ducksalad ([16]; 250 g ai/ha)
70: Plant response rating, Galium [5] | Barnyardgrass plant response rating [6] | Foxtail, Giant plant response rating [7] | Plant response rating, Kochia [8] | Plant response rating, Barnyardgrass [21]
80: Plant response rating, Barnyardgrass [6] | Plant response rating, Foxtail, Giant [7] | Plant response rating (scale of 0 to 100), Ducksalad ([16]; 125 g ai/ha) | Plant response rating, Foxtail, Giant [22]
50: Pigweed plant response rating [2] | Plant response rating (scale of 0 to 100), Barnyardgrass ([17]; 250 g ai/ha) | Pigweed plant response rating (0 to 100 scale, 0 is no effect, 100 is complete control) [20] | Kochia plant response rating (0 to 100 scale, 0 is no effect, 100 is complete control) [23]
0: Ragweed plant response rating [1] | Plant response rating, Ragweed [1] | Blackgrass plant response rating [3] | Plant response rating, Blackgrass [3] | Corn plant response rating [4] | Plant response rating, Corn [4] | Wheat plant response rating [9] | Ryegrass, Italian plant response rating [10] | Plant response rating, Ryegrass, Italian [10] | Plant response rating, Rice [13] | Plant response rating, Sedge, Umbrella [14] | Plant response rating (scale of 0 to 100), Rice ([15]; 31 g ai/ha) | Plant response rating (scale of 0 to 100), Rice ([15]; 62 g ai/ha) | Plant response rating (scale of 0 to 100), Rice ([15]; 125 g ai/ha) | Plant response rating (scale of 0 to 100), Rice ([15]; 250 g ai/ha) | Plant response rating (scale of 0 to 100), Ducksalad ([16]; 31 g ai/ha) | Plant response rating (scale of 0 to 100), Barnyardgrass ([17]; 31 g ai/ha) | Plant response rating (scale of 0 to 100), Barnyardgrass ([17]; 62 g ai/ha) | Plant response rating (scale of 0 to 100), Barnyardgrass ([17]; 125 g ai/ha) | Plant response rating (scale of 0 to 100), Sedge, Umbrella ([18]; 31 g ai/ha) | Plant response rating (scale of 0 to 100), Sedge, Umbrella ([18]; 62 g ai/ha) | Plant response rating (scale of 0 to 100), Sedge, Umbrella ([18]; 125 g ai/ha) | Plant response rating (scale of 0 to 100), Sedge, Umbrella ([18]; 250 g ai/ha) | Plant response rating, Ragweed [19] | Ragweed plant response rating (0 to 100 scale, 0 is no effect, 100 is complete control) [19] | Plant response rating, Pigweed [20] | Plant response rating, Ryegrass, Italian [24] | Ryegrass, Italian plant response rating (0 to 100 scale, 0 is no effect, 100 is complete control) [24]
75: Plant response rating, Barnyardgrass [12]
30: Galium plant response rating [5] | Plant response rating, Wheat [9]
40: Plant response rating (scale of 0 to 100), Ducksalad ([16]; 62 g ai/ha)
90: Barnyardgrass plant response rating (0 to 100 scale, 0 is no effect, 100 is complete control) [21] | Foxtail, Giant plant response rating (0 to 100 scale, 0 is no effect, 100 is complete control) [22]
60: Plant response rating, Pigweed [2] | Kochia plant response rating [8]

Cc1cc(C2CNC(=O)C2C(=O)Nc2ccc(F)c(F)c2F)ccc1F (stereo not shown) [Compound 401]
90: Barnyardgrass plant response rating [6] | Plant response rating, Barnyardgrass [6] | Plant response rating, Barnyardgrass [21] | Barnyardgrass plant response rating (0 to 100 scale, 0 is no effect, 100 is complete control) [21] | Foxtail, Giant plant response rating (0 to 100 scale, 0 is no effect, 100 is complete control) [22]
40: Plant response rating, Pigweed [2] | Plant response rating, Corn [4] | Ryegrass, Italian plant response rating (0 to 100 scale, 0 is no effect, 100 is complete control) [24]
80: Plant response rating, Foxtail, Giant [22] | Kochia plant response rating (0 to 100 scale, 0 is no effect, 100 is complete control) [23]
30: Ragweed plant response rating [1] | Foxtail, Giant plant response rating [7] | Ryegrass, Italian plant response rating [10]
0: Pigweed plant response rating [2] | Blackgrass plant response rating [3] | Corn plant response rating [4] | Plant response rating, Sedge, Umbrella [14] | Plant response rating, Ragweed [19] | Plant response rating, Ryegrass, Italian [24]
25: Plant response rating, Rice [13]
70: Plant response rating, Foxtail, Giant [7] | Plant response rating, Wheat [9] | Plant response rating, Barnyardgrass [12]
50: Plant response rating, Ragweed [1] | Plant response rating, Blackgrass [3] | Galium plant response rating [5] | Kochia plant response rating [8] | Ragweed plant response rating (0 to 100 scale, 0 is no effect, 100 is complete control) [19] | Pigweed plant response rating (0 to 100 scale, 0 is no effect, 100 is complete control) [20] | Plant response rating, Kochia [23]
60: Plant response rating, Galium [5] | Plant response rating, Kochia [8] | Plant response rating, Ryegrass, Italian [10]
100: Plant response rating, Ducksalad [11]
20: Wheat plant response rating [9] | Plant response rating, Pigweed [20]
